Data reported in patent US11597919B2, “Systems, methods and compositions for sequence manipulation with optimized functional CRISPR-Cas systems” (The Broad Institute, Inc., priority 2013, dated 2023).

Experiments:
[1] = test system: A375 melanoma cell line (BRAF V600E); conditions: cited from earlier work
[2] = test system: HEK 293FT cells; experiment: Nuclease and double-nicking activity of potential nickases, SURVEYOR analysis (Example 10); type: cell-based, human; conditions: 400 ng nickase, 100 ng sgRNA
Description: Nuclease and double-nicking activities for all potential nickases were tested in HEK 293FT cells as follows: co-transfection of 400 ng of nickase and 100 ng of U6-driven sgRNA (100 ng for one guide, or 50 ng each for a pair of sgRNAs) by Lipofectamine 2000 into ˜200,000 cells. DNAs from transfected cells were collected for SURVEYOR analysis.

[3] = test system: RNA; conditions: cited from earlier work
[4] = test system: human EMX1 locus; experiment: Surveyor assay for genome modification at the human EMX1 locus in HEK 293FT cells; type: cell-based; conditions: co-expression with EMX1-targeting chimeric crRNA; n=3
Description: Cells were transfected using Lipofectamine 2000 (Life Technologies) following the manufacturer's recommended protocol. For each well of a 24-well plate a total of 800 ng of plasmids were used.
Genomic DNA was extracted using the QuickExtract DNA extraction kit (Epicentre) following the manufacturer's protocol. […] Extracted genomic DNA was immediately processed or stored at −20° C.
The genomic region surrounding a CRISPR target site for each gene was PCR amplified, and products were purified using QiaQuick Spin Column (Qiagen) following manufacturer's protocol. A total of 400 ng of the purified PCR products were mixed with 2 μl 10× Taq polymerase PCR buffer (Enzymatics) and ultrapure water to a final volume of 20 μl, and subjected to a re-annealing process to enable heteroduplex formation: 95° C. for 10 min, 95° C. to 85° C. ramping at −2° C./s, 85° C. to 25° C. at −0.25° C./s, and 25° C. hold for 1 minute. After re-annealing, products were treated with Surveyor nuclease and Surveyor enhancer S (Transgenomics) following the manufacturer's recommended protocol, and analyzed on 4-20% Novex TBE poly-acrylamide gels (Life Technologies). Gels were stained with SYBR Gold DNA stain (Life Technologies) for 30 minutes and imaged with a Gel Doc gel imaging system (Bio-rad). Quantification was based on relative band intensities, as a measure of the fraction of cleaved DNA.

[5] = test system: human EMX1 locus; experiment: Sequencing of amplicons containing the EMX1 target locus; type: cell-based; conditions: 327 amplicons
Description: HEK 293FT or N2A cells were transfected with plasmid DNA as described above. After transfection, the cells were incubated at 37° C. for 72 hours before genomic DNA extraction. Genomic DNA was extracted using the QuickExtract DNA extraction kit (Epicentre) following the manufacturer's protocol. Briefly, cells were resuspended in QuickExtract solution and incubated at 65° C. for 15 minutes and 98° C. for 10 minutes. Extracted genomic DNA was immediately processed or stored at −20° C.
Since DSBs in mammalian nuclei are partially repaired by the non-homologous end joining (NHEJ) pathway, which leads to the formation of indels, the Surveyor assay was used to detect potential cleavage activity at the target EMX1 locus (FIG. 7) (see e.g. Guschin et al., 2010, Methods Mol Biol 649: 247). Co-transfection of all four CRISPR components was able to induce up to 5.0% cleavage in the protospacer (see FIG. 2D). […] Removing any of the remaining three components abolished the genome cleavage activity of the CRISPR system (FIG. 2D). Sanger sequencing of amplicons containing the target locus verified the cleavage activity: in 43 sequenced clones, 5 mutated alleles (11.6%) were found. Similar experiments using a variety of guide sequences produced indel percentages as high as 29% (see FIGS. 3-6, 10, and 11).

[6] = test system: target DNA with 5′-NGG PAM; experiment: Cleavage of target DNA bearing 5′-NGG PAM by PI domain chimeras (Example 12); type: cell-based, human; conditions: 5′-GGGCT
Description: Cells were transfected using Lipofectamine 2000 (Life Technologies) at 70-80% confluency following the manufacturer's recommended protocol.
Genomic DNA was extracted using the QuickExtract DNA Extraction Solution (Epicentre) following the manufacturer's protocol.
400 ng total of the purified PCR products were mixed with 2 μl 10× Taq DNA Polymerase PCR buffer (Enzymatics) and ultrapure water to a final volume of 20 μl, and subjected to a re-annealing process to enable heteroduplex formation: 95° C. for 10 min, 95° C. to 85° C. ramping at −2° C./s, 85° C. to 25° C. at −0.25° C./s, and 25° C. hold for 1 min. After re-annealing, products were treated with SURVEYOR nuclease and SURVEYOR enhancer S (Transgenomics) following the manufacturer's recommended protocol, and analyzed on 4-20% Novex TBE poly-acrylamide gels (Life Technologies). Gels were stained with SYBR Gold DNA stain (Life Technologies) for 30 min and imaged with a Gel Doc gel imaging system (Bio-rad). Quantification was based on relative band intensities. Indel percentage was determined by the formula, 100×(1−(1−(b+c)/(a+b+c))^1/2), where a is the integrated intensity of the undigested PCR product, and b and c are the integrated intensities of each cleavage product.

## CCCS(=O)(=O)Nc1ccc(F)c(C(=O)c2c[nH]c3ncc(Cl)cc23)c1F [PLX4720]
[1]
  sensitivity of cell line to BRAF inhibitor: naturally sensitive

## Cbh-hSpCas9(D10A)-NLS: SpCas9 RuvCI mutant D10A, homology set
[2]
  Functional?: nickase activity

## Cbh-hSpCas9(H840A)-NLS: SpCas9 HNH mutant H840A, homology set
[2]
  Functional?: no activity

## N55K mutant: N55K mutant of the MS2 bacteriophage coat protein
[3]
  binding affinity: higher binding affinity than wild type MS2

## SpCas9n: SpCas9 with aspartate-to-alanine substitution (D10A) in the RuvC I catalytic domain, a nickase
[4]
  indels at the EMX1 protospacer target: does not generate indels
[5]
  indels detected by sequencing: did not detect any indels

B1: St3-SpCas9: St3Cas9 with the PI domain of SpCas9, SEQ ID NO: 122 (protein)
chain: MAPKKKRKVGIHGVPAAMTKPYSIGLDIGTNSVGWAVTTDNYKVPSKKMKVLGNTSKKYIKKNLLGVLLFDSGITAEGRRLKRTARRRYTRRRNRILYLQEIFSTEMATLDDAFFQRLDDSFLVPDDKRDSKYPIFGNLVEEKAYHDEFPTIYHLRKYLADSTKKADLRLVYLALAHMIKYRGHFLIEGEFNSKNNDIQKNFQDFLDTYNAIFESDLSLENSKQLEEIVKDKISKLEKKDRILKLFPGEKNSGIFSEFLKLIVGNQADFRKCFNLDEKASLHFSKESYDEDLETLLGYIGDDYSDVFLKAKKLYDAILLSGFLTVTDNETEAPLSSAMIKRYNEHKEDLALLKEYIRNISLKTYNEVFKDDTKNGYAGYIDGKTNQEEEDFYVYLKKLLAEFEGADYFLEKIDREDFLRKQRTFDNGSIPYQIHLQEMRAILDKQAKFYPFLAKNKERIEKILTFRIPYYVGPLARGNSDFAWSIRKRNEKITPWNFEDVIDKESSAEAFINRMTSFDLYLPEEKVLPKHSLLYETFNVYNELTKVRFIAESMRDYQFLDSKQKKDIVRLYFKDKRKVTDKDIIEYLHAIYGYDGIELKGIEKQFNSSLSTYHDLLNIINDKEFLDDSSNEAIIEEIIHTLTIFEDREMIKQRLSKFENIFDKSVLKKLSRRHYTGWGKLSAKLINGIRDEKSGNTILDYLIDDGISNRNFMQLIHDDALSFKKKIQKAQIIGDEDKGNIKEVVKSLPGSPAIKKGILQSIKIVDELVKVMGGRKPESIVVVVEMARENQYTNQGKSNSQQRLKRLEKSLKELGSKILKENIPAKLSKIDNNALQNDRLYLYYLQNGKDMYTGDDLDIDRLSNYDIDHIIPQAFLKDNSIDNKVLVSSASNRGKSDDVPSLEVVKKRKTFWYQLLKSKLISQRKFDNLTKAERGGLSPEDKAGFIQRQLVETRQITKHVARLLDEKFNNKKDENNRAVRTVKIITLKSTLVSQFRKDFELYKVREINDFHHAHDAYLNAVVASALLKKYPKLEPEFVYGDYPKYNSFRERKSATEKVYFYSNIMNIFKKSISLADGRVIERPLIEVNEETGESVWNKESDLATVRRVLSYPQVNVVKKTEVQTGGFSKESILPKRNSDKLIARKKDWDPKKYGGFDSPTVAYSVLVVAKVEKGKSKKLKSVKELLGITIMERSSFEKNPIDFLEAKGYKEVKKDLIIKLPKYSLFELENGRKRMLASAGELQKGNELALPSKYVNFLYLASHYEKLKGSPEDNEQKQLFVEQHKHYLDEIIEQISEFSKRVILADANLDKVLSAYNKHRDKPIREQAENIIHLFTLTNLGAPAAFKYFDTTIDRKRYTSTKEVLDATLIHQSITGLYETRIDLSQLGGDKRPAATKKAGQAKKKK
[6]
  cleavage of target DNA with 5′-NGG PAM: cleaved

B2: Sp-St3Cas9: SpCas9 with the PI domain of St3Cas9, SEQ ID NO: 121 (protein)
chain: MDYKDHDGDYKDHDIDYKDDDDKMAPKKKRKVGIHGVPAADKKYSIGLDIGTNSVGWAVITDEYKVPSKKFKVLGNTDRHSIKKNLIGALLFDSGETAEATRLKRTARRRYTRRKNRICYLQEIFSNEMAKVDDSFFHRLEESFLVEEDKKHERHPIFGNIVDEVAYHEKYPTIYHLRKKLVDSTDKADLRLIYLALAHMIKFRGHFLIEGDLNPDNSDVDKLFIQLVQTYNQLFEENPINASGVDAKAILSARLSKSRRLENLIAQLPGEKKNGLFGNLIALSLGLTPNFKSNFDLAEDAKLQLSKDTYDDDLDNLLAQIGDQYADLFLAAKNLSDAILLSDILRVNTEITKAPLSASMIKRYDEHHQDLTLLKALVRQQLPEKYKEIFFDQSKNGYAGYIDGGASQEEFYKFIKPILEKMDGTEELLVKLNREDLLRKQRTFDNGSIPHQIHLGELHAILRRQEDFYPFLKDNREKIEKILTFRIPYYVGPLARGNSRFAWMTRKSEETITPWNFEEVVDKGASAQSFIERMTNFDKNLPNEKVLPKHSLLYEYFTVYNELTKVKYVTEGMRKPAFLSGEQKKAIVDLLFKTNRKVTVKQLKEDYFKKIECFDSVEISGVEDRFNASLGTYHDLLKIIKDKDFLDNEENEDILEDIVLTLTLFEDREMIEERLKTYAHLFDDKVMKQLKRRRYTGWGRLSRKLINGIRDKQSGKTILDFLKSDGFANRNFMQLIHDDSLTFKEDIQKAQVSGQGDSLHEHIANLAGSPAIKKGILQTVKVVDELVKVMGRHKPENIVIEMARENQTTQKGQKNSRERMKRIEEGIKELGSQILKEHPVENTQLQNEKLYLYYLQNGRDMYVDQELDINRLSDYDVDHIVPQSFLKDDSIDNKVLTRSDKNRGKSDNVPSEEVVKKMKNYWRQLLNAKLITQRKFDNLTKAERGGLSELDKAGFIKRQLVETRQITKHVAQILDSRMNTKYDENDKLIREVKVITLKSKLVSDFRKDFQFYKVREINNYHHAHDAYLNAVVGTALIKKYPKLESEFVYGDYKVYDVRKMIAKSEQEIGKATAKYFFYSNIMNFFKTEITLANGEIRKRPLIETNGETGEIVWDKGRDFATVRKVLSMPQVNIVKKTVEEQNHGLDRGKPKGLFNANLSSKPKPNSNENLVGAKEYLDPKKYGYGGYAGISNSFTVLVKGTIEKGAKKKITNVLEFQGISILDRINYRKDKLNFLLEKGYKDIELIIELPKYSLFELSDGSRRMLASILSTNNKRGEIHKGNQIFLSQKFVKLLYHAKRISNTINENHRKYVENHKKEFEELFYYILEFNENYVGAKKNGKLLNSAFQSWQNHSIDELCSSFIGPTGSERKGLFELTSRGSAADFEFLGVKIPRYRDYTPSSLLKDATLIHQSVTGLYETRIDLAKLGEGKRPAATKKAGQAKKKK
[6]
  cleavage of target DNA with 5′-NGG PAM: retained cleavage activity for the target DNA with 5′-NGG PAM, albeit at a lower level than that of SpCas9
